Measured values: patent US12077503B2, “Substituted cyclic amides and their use as herbicides” (FMC CORPORATION, priority 2015, dated 2024)

Experiments:
Assay type in all cases: in vivo
rice (Oryra sativa) = experiment: Test B flooded paddy test; conditions: Oryza sativa, 250 g ai/ha, Flood; 0 to 100 scale where 0 is no effect and 100 is complete control; read-out: Rice plant response rating
Outline: (§1)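 Response scored visually against untreated controls, 0 = no effect and 100 = complete control, 13–15 d after treatment in the greenhouse. Compounds added to paddy water held 3 cm above soil surface. Treatment given at 2-leaf stage.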

[1] = system: ducksalad (Heteranthera limosa); experiment: Test B flooded paddy test; conditions: Heteranthera limosa, 250 g ai/ha, Flood; 0 to 100 scale where 0 is no effect and 100 is complete control; read-out: Ducksalad plant response rating
Outline: as §1

[2] = system: barnyardgrass (Echinochloa crus-galli); experiment: Test B flooded paddy test; conditions: Echinochloa crus-galli, 250 g ai/ha, Flood; 0 to 100 scale where 0 is no effect and 100 is complete control; read-out: Barnyardgrass plant response rating
Outline: as §1

[3] = system: sedge, umbrella (small-flower umbrella sedge, Cyperus difformis); experiment: Test B flooded paddy test; conditions: Cyperus difformis, 250 g ai/ha, Flood; 0 to 100 scale where 0 is no effect and 100 is complete control; read-out: Sedge, Umbrella plant response rating
Outline: as §1

corn (Zea mays) = experiment: Test A postemergence; conditions: Zea mays, post-emergence, 240 h
Outline: (§2)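 Preemergence soil spray on seeded pots or post-emergence spray on 1–2 leaf plants, in loam–sand blend. Greenhouse ~10 d. Visual rating 0–100 against untreated plants.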

[4] = system: pigweed (Amaranthus retroflexus); experiment: Test A postemergence; conditions: Amaranthus retroflexus, post-emergence, 240 h
Outline: as §2

[5] = system: blackgrass (Alopecurus myosuroides); experiment: Test A postemergence; conditions: Alopecurus myosuroides, post-emergence, 240 h
Outline: as §2

Kochia (Kochia scoparia) [6] = experiment: Test A postemergence; conditions: Bassia scoparia, post-emergence, 240 h
Outline: as §2

[7] = system: giant foxtail (Setaria faberii); experiment: Test A postemergence; conditions: Setaria faberi, post-emergence, 240 h
Outline: as §2

[8] = system: barnyardgrass (Echinochloa crus-galli); experiment: Test A postemergence; conditions: Echinochloa crus-galli, post-emergence, 240 h
Outline: as §2

[9] = system: ryegrass, Italian (Italian ryegrass, Lolium multiflorum); experiment: Test A postemergence; conditions: Lolium multiflorum, post-emergence, 240 h
Outline: as §2

[10] = system: ragweed (common ragweed, Ambrosia elatior); experiment: Test A postemergence; conditions: Ambrosia artemisiifolia, post-emergence, 240 h
Outline: as §2

[11] = system: wheat (Triticum aestivum); experiment: Test A postemergence; conditions: Triticum aestivum, post-emergence, 240 h
Outline: as §2

[12] = system: Galium (catchweed bedstraw, Galium aparine); experiment: Test A postemergence; conditions: Galium, post-emergence, 240 h
Outline: as §2

[13] = system: pigweed (Amaranthus retroflexus); experiment: Test A preemergence; conditions: Amaranthus retroflexus, pre-emergence, 240 h, 0 to 100 scale where 0 is no effect and 100 is complete control, read-out: Pigweed plant response rating
Kochia (Kochia scoparia) [14] = experiment: Test A preemergence; conditions: Bassia scoparia, pre-emergence, 240 h, 0 to 100 scale where 0 is no effect and 100 is complete control, read-out: Kochia plant response rating
Outline: as §2

[15] = system: giant foxtail (Setaria faberii); experiment: Test A preemergence; conditions: Setaria faberi, pre-emergence, 240 h, Preemergence
Outline: as §2

[16] = system: barnyardgrass (Echinochloa crus-galli); experiment: Test A preemergence; conditions: Echinochloa crus-galli, pre-emergence, 240 h, Preemergence
Outline: as §2

[17] = system: ryegrass, Italian (Italian ryegrass, Lolium multiflorum); experiment: Test A preemergence; conditions: Lolium multiflorum, pre-emergence, 240 h, 0 to 100 scale where 0 is no effect and 100 is complete control, read-out: Ryegrass, Italian plant response rating
Outline: as §2

[18] = system: ragweed (common ragweed, Ambrosia elatior); experiment: Test A preemergence; conditions: Ambrosia artemisiifolia, pre-emergence, 240 h, 0 to 100 scale where 0 is no effect and 100 is complete control, read-out: Ragweed plant response rating
Outline: as §2

[19] = 125 g ai/ha, preemergence, approx. 10 d

Work on `COCc1ccccc1NC(=O)[C@H]1C(=O)N(C)C[C@@H]1c1cccc(C(F)(F)F)c1` (racemic) [Compound 1060] yielded a pest or weed control at 250 g/ha (rice (Oryra sativa)) of 20%, a pest or weed control at 250 g/ha [1] of 90% and a pest or weed control at 250 g/ha [2] of 75%. It also gave a pest or weed control at 250 g/ha [3] of 0%, a plant injury at 125 g/ha (corn (Zea mays); 125 g ai/ha, postemergence, visual injury on 0 to 100 scale (0 no effect, 100 complete control), approx. 10 d, read-out: Corn plant response rating) of 90% and a Corn plant response rating (crop injury, 0 = no effect, 100 = complete kill) at 31 g/ha (corn (Zea mays); Postemergence, 31 g ai/ha, visual injury after approx. 10 d, 0 to 100 scale, 0 no effect, 100 complete control) of 70%. For the same compound, the pest or weed control at 125 g/ha ([4]; 125 g ai/ha, postemergence, visual injury on 0 to 100 scale (0 no effect, 100 complete control), approx. 10 d, read-out: Pigweed plant response rating) was 0%, the pest or weed control at 31 g/ha ([4]; Postemergence, 31 g ai/ha, visual injury after approx. 10 d, 0 to 100 scale, 0 no effect, 100 complete control, read-out: Plant response rating, Pigweed) was 0% and the pest or weed control at 125 g/ha ([5]; 125 g ai/ha, postemergence, visual injury on 0 to 100 scale (0 no effect, 100 complete control), approx. 10 d, read-out: Blackgrass plant response rating) was 60%. The pest or weed control at 31 g/ha ([5]; Postemergence, 31 g ai/ha, visual injury after approx. 10 d, 0 to 100 scale, 0 no effect, 100 complete control, read-out: Plant response rating, Blackgrass) was 50%, the pest or weed control at 125 g/ha (Kochia (Kochia scoparia) [6]; 125 g ai/ha, postemergence, visual injury on 0 to 100 scale (0 no effect, 100 complete control), approx. 10 d, read-out: Kochia plant response rating) was 0% and the pest or weed control at 31 g/ha (Kochia (Kochia scoparia) [6]; Postemergence, 31 g ai/ha, visual injury after approx. 10 d, 0 to 100 scale, 0 no effect, 100 complete control, read-out: Plant response rating, Kochia) was 0%. It also gave a pest or weed control at 125 g/ha ([7]; 125 g ai/ha, postemergence, visual injury on 0 to 100 scale (0 no effect, 100 complete control), approx. 10 d, read-out: Foxtail, Giant plant response rating) of 90%, a pest or weed control at 31 g/ha ([7]; Postemergence, 31 g ai/ha, visual injury after approx. 10 d, 0 to 100 scale, 0 no effect, 100 complete control, read-out: Plant response rating, Foxtail, Giant) of 90% and a pest or weed control at 125 g/ha ([8]; 125 g ai/ha, postemergence, visual injury on 0 to 100 scale (0 no effect, 100 complete control), approx. 10 d, read-out: Barnyardgrass plant response rating) of 100%. The pest or weed control at 31 g/ha ([8]; Postemergence, 31 g ai/ha, visual injury after approx. 10 d, 0 to 100 scale, 0 no effect, 100 complete control, read-out: Plant response rating, Barnyardgrass) was 90%, the pest or weed control at 125 g/ha ([9]; 125 g ai/ha, postemergence, visual injury on 0 to 100 scale (0 no effect, 100 complete control), approx. 10 d, read-out: Ryegrass, Italian plant response rating) was 50% and the pest or weed control at 31 g/ha ([9]; Postemergence, 31 g ai/ha, visual injury after approx. 10 d, 0 to 100 scale, 0 no effect, 100 complete control, read-out: Plant response rating, Ryegrass, Italian) was 50%. The pest or weed control at 125 g/ha ([10]; 125 g ai/ha, postemergence, visual injury on 0 to 100 scale (0 no effect, 100 complete control), approx. 10 d, read-out: Ragweed plant response rating) was 30%, the pest or weed control at 31 g/ha ([10]; Postemergence, 31 g ai/ha, visual injury after approx. 10 d, 0 to 100 scale, 0 no effect, 100 complete control, read-out: Plant response rating, Ragweed) was 0% and the plant injury at 125 g/ha ([11]; 125 g ai/ha, postemergence, visual injury on 0 to 100 scale (0 no effect, 100 complete control), approx. 10 d, read-out: Wheat plant response rating) was 70%. The plant injury at 31 g/ha ([11]; Postemergence, 31 g ai/ha, visual injury after approx. 10 d, 0 to 100 scale, 0 no effect, 100 complete control, read-out: Plant response rating, Wheat) was 30%, the pest or weed control at 125 g/ha ([12]; 125 g ai/ha, postemergence, visual injury on 0 to 100 scale (0 no effect, 100 complete control), approx. 10 d, read-out: Galium plant response rating) was 40% and the pest or weed control at 31 g/ha ([12]; Postemergence, 31 g ai/ha, visual injury after approx. 10 d, 0 to 100 scale, 0 no effect, 100 complete control, read-out: Plant response rating, Galium) was 0%. For the same compound, the pest or weed control at 31 g/ha ([13]; 31 g ai/ha, Preemergence) was 0%, the pest or weed control at 125 g/ha [13, 19] was 30% and the pest or weed control at 31 g/ha (Kochia (Kochia scoparia) [14]; 31 g ai/ha, Preemergence) was 0%. For the same compound, the pest or weed control at 125 g/ha (Kochia (Kochia scoparia) [14]; [19]) was 0%, the pest or weed control at 125 g/ha ([15]; 125 g ai/ha, visual injury rating after approximately 10 d, read-out: Foxtail, Giant plant response rating (0 to 100 scale, 0 is no effect, 100 is complete control)) was 100% and the pest or weed control at 31 g/ha ([15]; 31 g ai/ha, 0 to 100 scale (0 no effect, 100 complete control), read-out: Plant response rating, Foxtail, Giant) was 90%. The pest or weed control at 125 g/ha ([16]; 125 g ai/ha, visual injury rating after approximately 10 d, read-out: Barnyardgrass plant response rating (0 to 100 scale, 0 is no effect, 100 is complete control)) was 100%, the pest or weed control at 31 g/ha ([16]; 31 g ai/ha, 0 to 100 scale (0 no effect, 100 complete control), read-out: Plant response rating, Barnyardgrass) was 90% and the pest or weed control at 31 g/ha ([17]; 31 g ai/ha, Preemergence) was 50%. The pest or weed control at 125 g/ha [17, 19] was 60%, the pest or weed control at 31 g/ha ([18]; 31 g ai/ha, Preemergence) was 0% and the pest or weed control at 125 g/ha [18, 19] was 30%.
